Assay results from patent publication US20220267479A1, “POLYIODIDE BINDING COMPOUNDS AND METHODS OF USE THEREOF” (North Carolina State University, priority 2019, published 2022).
Values joined by “and” are separate entries in the source; they are usually repeats but may differ in a detail not shown here. Identical values can stand only once.

How the values were obtained:
[1] = test system: rat liver homogenate; assay: Indigoid-dye formation in rat liver homogenate; format: biochemical; settings: indoxyl 1 mM, 5% DMF, 37° C., 24 h
Description: Finally, indigoid-dye formation was carried out in rat liver homogenate (Table 1, rightmost column).
Reactions in rat liver homogenate. An indoxyl compound in DMF (5 μL, 20 mM) was mixed with rat liver homogenate (95 μL). The reaction mixture was incubated at 37° C. for 24 h. After allowing to cool to room temperature, the reaction mixture was diluted with DMF (900 μL). The mixture was heated at 70° C. for 2 min and then centrifuged for 2 min. The supernatant was separated from any precipitate. This extraction procedure was repeated two or three times with DMF (100-500 μL). The combined supernatant (1500-1800 μL) was analyzed by absorption spectroscopy.

[2] = test system: tritosomes; assay: Indigoid dye formation with tritosomes; format: biochemical
Description: The results from the glucosidase survey prompted several further experiments. First, a parallel set of studies was carried out with inclusion of several oxidants commonly employed in histochemical studies, given that the indigoid dye forming process requires the presence of an oxidant. […] The activity of the β-glucosidase was affected only slightly in the presence of a non-ionic detergent. To verify that the results observed in Table 1 were reliable, a 5-mg scale reaction of 33 was carried out to isolate indigo 43, which was obtained in 66% yield (Scheme 7). The 66% isolated yield corresponded well with the enzymatic yield of […] (Table 1, entry 15).
General methods. β-Glucosidase from almonds (lyophilized powder, >2 units/mg solid) and peroxidase from horseradish were purchased from Sigma-Aldrich. O-Glucosidase from Agrobacterium sp. (recombinant, suspension in 3.2 M (NH4)2SO4) was purchased from Megazyme; the concentration in solution was determined by absorption spectroscopy with E^0.1%32 2.20 cm^−1 at 280 nm.^37 Tritosomes were purchased from XenoTech. Rat liver homogenate was purchased from MP Biomedicals.

[3] = test system: β-glucosidase from almonds; assay: Indigogenic reaction with β-glucosidase from almonds; format: biochemical
From the text: With diverse glucosyl-indoxyl compounds in hand, we carried out a set of studies to examine indigoid-dye formation upon enzymatic cleavage of the glucosyl unit under physiological conditions. Altogether, 14 new (15, 16, 19-27, 30, 33, 41) and 2 known (1, 42) synthetic indoxyl-glucosides (lacking acetyl protecting groups) were examined in an effort to identify suitable combinations of substituents to support both bioconjugation and indigoid dye formation. In initial studies, β-glucosidase from almonds was employed to trigger indigoid dye formation (Table 1). Thus, a mixture of this enzyme (1 unit/mL) and an indoxyl β-glucoside (0.1 μmol, 1 mM) in acetate buffer (pH 5, containing 5% DMF) was incubated at 37° C. for 16-19 h. All indigoid dye was dissolved in each case for quantitative evaluation.
Reactions with β-glucosidase from almonds. An indoxyl compound in DMF (5 μL, 20 mM) and β-glucosidase from almonds in H2O (10 μL, 10 units/mL) were mixed with acetate buffer (85 μL, 50 mM, pH 5.0). The reaction mixture was incubated at 37° C. for 16-19 h and then allowed to cool to room temperature. DMF (300 μL for the reactions of 15, 16, 1, 19, 22, and 25; or 900 μL for the reactions of 42, 20, 21, 23, 24, 26, 27, 30, and 31, respectively) was added to dissolve any indigoid precipitate. The resulting solution was analyzed by absorption spectroscopy.

[4] = molecular target: T1, β-glucosidase from Agrobacterium (Agrobacterium sp., UniProt P12614); assay: Indigogenic reaction with β-glucosidase from Agrobacterium; format: biochemical
T1 construct: purchased Megazyme; host or cells: recombinant
T1 sequence (P12614 1-459): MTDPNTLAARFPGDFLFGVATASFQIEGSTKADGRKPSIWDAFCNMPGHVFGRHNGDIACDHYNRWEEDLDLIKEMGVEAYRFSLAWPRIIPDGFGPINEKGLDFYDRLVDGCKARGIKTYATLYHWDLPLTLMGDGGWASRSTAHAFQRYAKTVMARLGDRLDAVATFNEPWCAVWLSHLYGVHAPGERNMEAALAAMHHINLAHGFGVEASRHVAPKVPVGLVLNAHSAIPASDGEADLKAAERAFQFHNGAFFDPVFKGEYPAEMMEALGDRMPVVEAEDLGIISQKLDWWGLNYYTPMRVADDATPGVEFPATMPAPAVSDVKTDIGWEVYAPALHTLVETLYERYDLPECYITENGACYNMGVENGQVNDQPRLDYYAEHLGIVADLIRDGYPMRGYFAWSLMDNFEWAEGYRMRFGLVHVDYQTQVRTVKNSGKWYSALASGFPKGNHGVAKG
Description: Next, the β-glucosidase from Agrobacterium sp. was investigated as the trigger enzyme for indigoid dye formation. […]
Reactions with β-glucosidase from Agrobacterium. An indoxyl compound in DMF (2 μL, 5 mM) and β-glucosidase from Agrobacterium in 10 mM phosphate buffer [2 μL, 10 μM, pH 7.0, containing 50 mM NaCl and 0.6 M (NH4)2SO4] were mixed with 50 mM phosphate buffer (96 μL, pH 7.0). The reaction mixture was incubated at 37° C. for 2 h and then centrifuged for 3 min. Any precipitate was separated from the supernatant and dissolved in DMF (200 μL). The resulting solution was analyzed by absorption spectroscopy. The experiment was repeated three times.

[5] = molecular target: T2, β-glucosidase from Agrobacterium plus rat liver homogenate (Agrobacterium sp., UniProt P12614); assay: Reaction of 33 with β-glucosidase from Agrobacterium in rat liver homogenate; format: biochemical; settings: 33 100 μM, enzyme 200 nM, 2% DMF, 37° C., 4 h; ε = 2.6 × 10^4 M^-1 cm^-1
T2 construct: purchased Megazyme; host or cells: recombinant
T2 sequence (P12614 1-459): T1 sequence (P12614 1-459)
Description: Finally, indigoid-dye formation was carried out in rat liver homogenate (Table 1, rightmost column). Good yields were obtained in the case of 42 (65%, entry 4) and 27 (50%, entry 13). […] However, when β-glucosidase from Agrobacterium (200 nM) was present in rat liver homogenate, the indigoid dye was obtained in 81% yield (entry 15).
Reaction of 33 with β-glucosidase from Agrobacterium in rat liver homogenate. A DMF solution of 33 (2 μL, 5 mM) and β-glucosidase from Agrobacterium in 10 mM phosphate buffer [2 μL, 10 μM, pH 7.0, containing 50 mM NaCl and 0.6 M (NH4)2SO4] were mixed with rat liver homogenate (96 μL). The reaction mixture was incubated at 37° C. for 4 h and then centrifuged for 3 min. Any precipitate was separated from the supernatant and then suspended in DMF (200 μL). The suspension was centrifuged for 3 min. The supernatant was analyzed by absorption spectroscopy.

[6] = format: physicochemical; settings: pH 7.4
From the text: Water solubility of the indoxyl glucoside is important for biological applications. […] Therefore, this compound is not suitable for bioconjugation. The synthesis of 34 relies on successive substitution of the dichloroanilinotriazine unit (derived from N,N-bis(2-methoxyethyl)aniline^31 and cyanuric chloride) with indoxyl-glucoside-PEG-OH and BCN-PEG-NH2 building blocks.
To improve the water solubility of the indoxyl species, a sulfobetaine unit^32,33 was incorporated as a water-solubilizing group. Sulfobetaines are stable zwitterions over a wide range of pH. Synthesis of an indoxyl bearing a sulfobetaine unit is illustrated in Scheme 6. Boc-piperazine (35) was treated with 1,3-propane sultone to afford 36 in 63% yield. Quaternization of the tertiary nitrogen atom in 36 with 3-bromopropanol gave Boc-protected sulfobetaine 37 in 69% yield. The Boc group was cleaved with trifluoroacetic acid (TFA) to afford piperazine-TFA salt 38 in 97% yield. The N-acetyl group of 32 was selectively deprotected with NaHCO3/MeOH in 84% yield. The product 39, piperazine-TFA salt 38, and BCN-amine 14 were assembled at a triazine ring via one-flask, successive substitution of cyanuric chloride to afford 40 in 51% yield. Cleavage of the acetyl groups of sulfobetaine 40 provided 41 in 98% yield.

[7] = indoxyl 1 mM, enzyme 1 unit/mL, acetate buffer pH 5, 5% DMF, 37° C., 16-19 h, ε = 1.27 × 10^4 M^-1 cm^-1 (measured for 4)
[8] = indoxyl 100 μM, enzyme 200 nM, 0.05 M phosphate buffer pH 7.0, 2% DMF, 37° C., 2 h, n=3, ε = 1.27 × 10^4 M^-1 cm^-1
[9] = as E1 but ε = 2.6 × 10^4 M^-1 cm^-1 measured for 43
[10] = as E4 but ε = 2.6 × 10^4 M^-1 cm^-1 measured for 43

Question: With “5-[(Benzylcarbamoyl)oxy)]-1H-indole-3-yl β-D-glucopyranoside [Indoxyl 16]” as the compound, how does the “Yield (%) rat liver homogenate” value ([1]; ε = 1.27 × 10^4 M^-1 cm^-1) read?
Answer: 9%

Question: And the “Indigoid dye formation with tritosomes” value [2]?
Answer: low yield of indigoid dye

Question: With `COc1nc(Oc2ccc3[nH]cc(O[C@@H]4O[C@H](CO)[C@@H](O)[C@H](O)[C@H]4O)c3c2)nc(N2CCOCC2)n1` [Indoxyl 19, 5-[(4-Methoxy-6-morpholino-1,3,5-triazin-2-yl)oxy]-1H-indole-3-yl β-D-glucopyranoside] as the compound, how does the “Yield (%) β-glucosidase from almonds” value [3, 7] read?
Answer: <1%

Question: What about the “Yield (%) rat liver homogenate” value ([1]; ε = 1.27 × 10^4 M^-1 cm^-1) of the same compound?
Answer: <5%

Question: What about the “Yield (%) β-glucosidase from Agrobacterium” value [4, 8] of the same compound?
Answer: 46 ± 5%

Question: And the “Indigoid dye formation with tritosomes” value [2]?
Answer: low yield of indigoid dye

Question: With `C#CCOc1ccc2[nH]cc(O[C@@H]3O[C@H](CO)[C@@H](O)[C@H](O)[C@H]3O)c2c1Br` [Indoxyl 26, 4-Bromo-5-propargyloxy-1H-indol-3-yl β-D-glucopyranoside] as the compound, how does the “Yield (%) β-glucosidase from almonds” value [3, 7] read?
Answer: 56%

Question: And the “Yield (%) rat liver homogenate” value ([1]; ε = 1.27 × 10^4 M^-1 cm^-1)?
Answer: 17%

Question: What about the “Yield (%) β-glucosidase from Agrobacterium” value [4, 8] of the same compound?
Answer: 79 ± 1%

Question: With `C#CCOc1c(Br)cc2[nH]cc(O[C@@H]3O[C@H](CO)[C@@H](O)[C@H](O)[C@H]3O)c2c1Br` [Indoxyl 27, 4,6-Dibromo-5-propargyloxy-1H-indol-3-yl β-D-glucopyranoside] as the compound, how does the “Yield (%) β-glucosidase from almonds” value [3, 9] read?
Answer: 51%

Question: And the “Yield (%) β-glucosidase from almonds” value [3, 7]?
Answer: 105%

Question: What about the “Yield (%) rat liver homogenate” value ([1]; ε = 1.27 × 10^4 M^-1 cm^-1) of the same compound?
Answer: 50%

Question: And the “Yield (%) β-glucosidase from Agrobacterium” value [4, 10]?
Answer: 89 ± 2%

Question: What about the “Yield (%) β-glucosidase from Agrobacterium” value [4, 8] of the same compound?
Answer: 184 ± 3%

Question: With `OCCOCCOCCOc1c(Br)cc2[nH]cc(O[C@@H]3O[C@H](CO)[C@@H](O)[C@H](O)[C@H]3O)c2c1Br` [Indoxyl 33, 4,6-Dibromo-5-[1-hydroxy-3,6,9-trioxanon-9-yl]-1H-indol-3-yl β-D-glucopyranoside] as the compound, how does the “Yield (%) β-glucosidase from almonds” value [3, 9] read?
Answer: 52% and 52^g %

Question: What about the “Yield (%) β-glucosidase from Agrobacterium plus rat liver homogenate” value [5] of the same compound?
Answer: 81% and 81 ± 5%

Question: And the “Yield (%) rat liver homogenate” value ([1]; ε = 2.6 × 10^4 M^-1 cm^-1 measured for 43)?
Answer: < 5%

Question: What about the “Yield of indigoid dye” value ([4]; 33 at 1.0 μM, enzyme 200 nM, pH 7.0, 2 h) of the same compound?
Answer: 41%

Question: What about the “Yield of indigoid dye” value ([4]; 33 at 1.0 μM, enzyme 200 nM, pH 7.0, 14 h) of the same compound?
Answer: 57%

Question: And the “Yield of indigoid dye” value ([4]; 33 at 1.8 μM, enzyme 200 nM, pH 7.0, 2 h)?
Answer: 42%

Question: And the “Yield of indigoid dye” value ([4]; 33 at 1.8 μM, enzyme 200 nM, pH 7.0, 14 h)?
Answer: 79%

Question: What about the “Yield of indigoid dye” value ([4]; 33 at 3.2 μM, enzyme 200 nM, pH 7.0, 2 h) of the same compound?
Answer: 51%

Question: And the “Yield of indigoid dye” value ([4]; 33 at 3.2 μM, enzyme 200 nM, pH 7.0, 14 h)?
Answer: 88%

Question: And the “Yield of indigoid dye” value ([4]; 33 at 5.6 μM, enzyme 200 nM, pH 7.0, 2 h)?
Answer: 62%

Question: And the “Yield of indigoid dye” value ([4]; 33 at 10 μM, enzyme 200 nM, pH 7.0, 2 h)?
Answer: 90%

Question: And the “Yield of indigoid dye” value ([4]; 33 at 18 μM, enzyme 200 nM, pH 7.0, 2 h)?
Answer: 85%

Question: What about the “Yield of indigoid dye” value ([4]; 33 at 32 μM, enzyme 200 nM, pH 7.0, 2 h) of the same compound?
Answer: 86%

Question: And the “Yield of indigoid dye” value ([4]; 33 at 56 μM, enzyme 200 nM, pH 7.0, 2 h)?
Answer: 89%

Question: What about the “Yield (%) β-glucosidase from Agrobacterium” value [4, 10] of the same compound?
Answer: 99% and 99 ± 5^g %

Question: What about the “Yield of indigoid dye” value ([4]; pH 4, 33 100 μM, enzyme 200 nM, phosphate buffer, 37° C., 3 h) of the same compound?
Answer: 6%

Question: And the “Yield of indigoid dye” value ([4]; pH 5, 33 100 μM, enzyme 200 nM, phosphate buffer, 37° C., 3 h)?
Answer: 38%

Question: And the “Yield of indigoid dye” value ([4]; pH 6-8, 10 nM enzyme, 33 100 μM, 2 h)?
Answer: 50-71%

Question: What about the “Yield of indigoid dye” value ([4]; pH 6-9, 33 100 μM, enzyme 200 nM, 3 h) of the same compound?
Answer: High to quantitative yields

Question: For `O=C(NCCOCCOCCNc1nc(OCCOCCOCCOc2c(Br)cc3[nH]cc(OC4O[C@H](CO)[C@@H](O)[C@H](O)[C@H]4O)c3c2Br)nc(N2CC[N+](CCCO)(CCCS(=O)(=O)[O-])CC2)n1)OC[C@@H]1[C@@H]2CCC#CCC[C@@H]21` (some centres unmarked) [Indoxyl 41], which Solubility [6] is on record?
Answer: > 400 µM

Question: What about the “Yield (%) β-glucosidase from Agrobacterium” value [4, 10] of the same compound?
Answer: 106% and 106 ± 4^g %
